Where “and” joins values, the source holds several entries; their conditions need not be identical. Equal entries are not always repeated.
System: LSL-KrasG12D/+; LSL-Trp53R172H/+; Pdx1-Cre (KPC) mouse model of pancreatic cancer
Test: Survival of KPC mice with pancreatic cancer from start of treatment (Kaplan-Meier, Log-Rank)
Assay type: in vivo
Source text: • Test antibody and drug Anti-gremlin-1 antibody-Ab7326 mlgG1-APP.4405.IgG.mFc-Lot number-PB 4682 • Vehicle-Phosphate Buffered Saline pH 7.4 (provided by the Beatson Institute) • Gemcitabine-(provided by the Beatson Institute, purchased from LC Labs, Woburn, MA, USA) in Phosphate Buffered Saline pH 7.4. • Genetically Modified Mice • LSL-Kras^G12D/+; Trp53^R172H/+; Pdx1-Cre (KPC) mice have been described previously (Hingorani et al., 2005). Mice were generated by crossing mice bearing Pdx1-Cre, and conditional LSL-KrasG12D or LSL-Trp53R172H alleles (strains 01XJ6 and 01XL9, Mouse Models of Human Cancer Consortium [MMHCC], NCI-Frederick, Frederick, MD, USA). Mice on a mixed background were bred in-house at the CRUK Beatson Institute and maintained in conventional caging with environmental enrichment, access to standard chow and water ad libitum. Genotyping was performed by Transnetyx (Cordoba, TN, USA). Mice of both sexes were recruited onto study. All animal experiments were performed under a UK Home Office licence and approved by the University of Glasgow Animal Welfare and Ethical Review Board.
Mice were monitored 3 times weekly until a diagnosis of pancreatic cancer was made by abdominal palpation and confirmed by ultrasound imaging. […] Mice were monitored daily and sacrificed when reaching ethical endpoint (symptoms include abdominal distension, cachexia, intermittent hunching or reduced mobility, piloerection, mild diarrhoea, anaemia). […]
Next, the efficacy of gremlin-1 inhibition as a potential therapeutic approach for pancreatic cancer was tested in the KPC model. […] A cohort of KPC mice was established and mice were monitored until they developed pancreatic cancer detectable by palpation.
Mice were monitored at least weekly by palpation until pancreatic tumours were detectable. […] Mice remained on study and were closely monitored until ethical endpoint was reached, at which time they were sacrificed as per institutional guidelines.

Nc1ccn([C@@H]2O[C@H](CO)[C@@H](O)C2(F)F)c(=O)n1 [Gemcitabine, 2′-deoxy-2′,2′-difluorocytidine, reference compound]
survival compared with vehicle controls (KPC mice, result in words): negligible benefit | Median (days) survival (KPC mice, survival from start of treatment, dosing twice weekly (Ab7326 mlgG1 30 mg/kg s.c.; gemcitabine 100 mg/kg i.p.)): 24 days | Days on Rx (individual mice) (one value per KPC mouse, * denotes smaller than average tumour at start of treatment): 3 days and 34 days and 24 days and 44 days and 17 days
